In series [1] the test system is Staphylococcus aureus ATCC29213. The series can be described thus: Antimicrobial activity, MIC by agar dilution method. It is filed as cell-based. The note with it: Mueller-Hinton agar, 37° C., 18 to 20 hr. The procedure:
(§1) The antimicrobial activity of 2-hydroxykanamycin B and 2-hydroxykanamycin C was measured as the minimum inhibitory concentration (MIC) by an agar dilution method. Test bacteria which had been cultivated overnight in a growth medium were adjusted to 10^6 cells/ml, and one platinum loop thereof was inoculated in a Mueller-Hinton agar medium containing 2-hydroxykanamycin B or 2-hydroxykanamycin C (manufactured by Difco Laboratories Inc.), followed by cultivation at 37° C. for 18 to 20 hr.

Series [2] has as its system Pseudomonas aeruginosa PA01. The series is described as above. It is filed as cell-based. The note with it: Mueller-Hinton agar, 37° C., 18 to 20 hr. The procedure:
as §1

Series [3] deals with Enterococcus faecium ATCC19434. The description is as above. The series is classed as cell-based. The settings on record: Mueller-Hinton agar, 37° C., 18 to 20 hr. The procedure:
as §1

Series [4] deals with Acinetobacter calcoaceticus ATCC23055. The description is as above. The series is classed as cell-based. The settings on record: Mueller-Hinton agar, 37° C., 18 to 20 hr. The procedure: as §1
Series [5] has as its system Staphylococcus aureus 209P JC-1. The series is described as above. The series is classed as cell-based. The settings on record: Mueller-Hinton agar, 37° C., 18 to 20 hr. The procedure:
as §1

Series [6] relates to Enterococcus faecalis ATCC29212. The description is as above. The series is classed as cell-based. The settings on record: Mueller-Hinton agar, 37° C., 18 to 20 hr. The procedure: as §1
The test system of series [7] is Bacillus subtilis ATCC6633. The description is as above. The series is classed as cell-based. The settings on record: Mueller-Hinton agar, 37° C., 18 to 20 hr. The procedure:
as §1

Series [8] deals with Staphylococcus epidermidis ATCC14990. Described as above. The series is classed as cell-based. The settings on record: Mueller-Hinton agar, 37° C., 18 to 20 hr. The procedure:
as §1

The subject of series [9] is Salmonella typhimurium ATCC13311. The description is as above. The series is classed as cell-based. The note with it: Salmonella enterica, Mueller-Hinton agar, 37° C., 18 to 20 hr. The procedure: as §1
Series [10] has as its system Escherichia coli ATCC25922. The description is as above. The series is classed as cell-based. The note with it: Mueller-Hinton agar, 37° C., 18 to 20 hr. The procedure: as §1
Series [11] in a line: Physicochemical properties: solubility.

In patent US9469863B2, “Aminoglycoside antibiotics, process for producing the same, and pharmaceutical use thereof” (MEIJI SEIKA KAISHA, LTD., priority 2007, dated 2016) one finds MIC and Solubility data, which are given here for two compounds.

Values after ≈ are worked out from the molar mass of the structure shown.

In the case of `NC1C(O)C(CO)OC(OC2C(N)C(O)C(N)C(OC3OC(CO)C(O)C(O)C3N)C2O)C1O` (centres unmarked) [2-Hydroxykanamycin C, 2-hydroxykanamycin C], the MIC was 128 µg/mL (≈ 256 µM) in [1]; greater than 128 µg/mL in [2]; greater than 128 µg/mL in series [3]; 32 µg/mL (≈ 63.9 µM) in series [4]; 128 µg/mL (≈ 256 µM) in [5]; greater than 128 µg/mL in series [6]. Moreover, the MIC came to 16 µg/mL (≈ 32 µM) in series [7], 32 µg/mL (≈ 63.9 µM) in series [8], 32 µg/mL (≈ 63.9 µM) in [9] and 128 µg/mL (≈ 256 µM) in [10]. The Solubility result is “insoluble” in series [11] (in chloroform), “insoluble” in series [11] (in ethyl acetate) and “soluble” in series [11] (in water).
As to `NCC1OC(OC2C(N)C(O)C(N)C(OC3OC(CO)C(O)C(N)C3O)C2O)C(N)C(O)C1O` (centres unmarked) [2-Hydroxykanamycin B, 2-hydroxykanamycin B], the MIC in series [1] was 2 µg/mL (≈ 4 µM); in [2] it was 128 µg/mL (≈ 256 µM); in series [3] it was 64 µg/mL (≈ 128 µM); in series [4], 1 µg/mL (≈ 2 µM); in series [5], 2 µg/mL (≈ 4 µM); in series [6], 64 µg/mL (≈ 128 µM). Besides, the minimal inhibitory concentration (MIC) in series [7] worked out at 0.5 µg/mL (≈ 1 µM); in series [8], 1 µg/mL (≈ 2 µM); in series [9] it was 1 µg/mL (≈ 2 µM); in [10] it was 4 µg/mL (≈ 8.01 µM). Besides, the results for the Solubility entry in series [11] (in chloroform), in series [11] (in ethyl acetate) and in series [11] (in water) were “insoluble”, “insoluble” and “soluble”, respectively.
